Tests used:
[1] = target: T1, E. coli respiratory complex I (NADH:ubiquinone oxidoreductase) (Escherichia coli, UniProt P31979); experiment: NADH:ferricyanide oxidoreductase assay, NADH oxidation at […] nm, Lineweaver-Burk secondary plots; format: biochemical; conditions: reaction started by enzyme (oxidised enzyme), ferricyanide 0.25-2 mM, pH 6.0, 30 °C, ping-pong-pong with double substrate inhibition, competitive with ferricyanide at the reduced
T1 construct: gene nuoF; whole complex from the nuo operon, His-tagged NuoF, overproduced in E. coli, DDM-solubilised, purified by anion exchange, Ni-IDA and Source Q; with NADH-quinone oxidoreductase subunit E; NADH-quinone oxidoreductase subunit G; NADH-quinone oxidoreductase subunit C/D; NADH-quinone oxidoreductase subunit B; NADH-quinone oxidoreductase subunit I; NADH-quinone oxidoreductase subunit A; NADH-quinone oxidoreductase subunit H; NADH-quinone oxidoreductase subunit J; NADH-quinone oxidoreductase subunit K; NADH-quinone oxidoreductase subunit L; NADH-quinone oxidoreductase subunit M; NADH-quinone oxidoreductase subunit N
T1 sequence (P31979 1-445): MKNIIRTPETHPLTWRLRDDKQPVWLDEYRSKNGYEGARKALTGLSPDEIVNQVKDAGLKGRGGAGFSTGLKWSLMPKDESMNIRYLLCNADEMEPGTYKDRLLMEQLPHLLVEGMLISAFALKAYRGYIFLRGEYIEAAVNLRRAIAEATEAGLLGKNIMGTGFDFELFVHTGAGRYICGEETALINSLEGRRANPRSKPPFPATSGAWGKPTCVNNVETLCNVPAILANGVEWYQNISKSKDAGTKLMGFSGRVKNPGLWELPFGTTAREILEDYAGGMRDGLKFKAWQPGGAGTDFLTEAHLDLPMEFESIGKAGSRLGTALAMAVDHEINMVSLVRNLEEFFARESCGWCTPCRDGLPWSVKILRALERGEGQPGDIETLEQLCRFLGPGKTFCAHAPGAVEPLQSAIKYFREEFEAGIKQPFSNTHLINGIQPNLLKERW
T1 sequence (P0AFD1 1-166 partner): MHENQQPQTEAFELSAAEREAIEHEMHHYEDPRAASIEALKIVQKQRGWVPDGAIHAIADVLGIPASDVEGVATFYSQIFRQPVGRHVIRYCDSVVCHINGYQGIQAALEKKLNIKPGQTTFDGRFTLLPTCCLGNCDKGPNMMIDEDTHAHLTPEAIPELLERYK
T1 sequence (P33602 2-908 partner): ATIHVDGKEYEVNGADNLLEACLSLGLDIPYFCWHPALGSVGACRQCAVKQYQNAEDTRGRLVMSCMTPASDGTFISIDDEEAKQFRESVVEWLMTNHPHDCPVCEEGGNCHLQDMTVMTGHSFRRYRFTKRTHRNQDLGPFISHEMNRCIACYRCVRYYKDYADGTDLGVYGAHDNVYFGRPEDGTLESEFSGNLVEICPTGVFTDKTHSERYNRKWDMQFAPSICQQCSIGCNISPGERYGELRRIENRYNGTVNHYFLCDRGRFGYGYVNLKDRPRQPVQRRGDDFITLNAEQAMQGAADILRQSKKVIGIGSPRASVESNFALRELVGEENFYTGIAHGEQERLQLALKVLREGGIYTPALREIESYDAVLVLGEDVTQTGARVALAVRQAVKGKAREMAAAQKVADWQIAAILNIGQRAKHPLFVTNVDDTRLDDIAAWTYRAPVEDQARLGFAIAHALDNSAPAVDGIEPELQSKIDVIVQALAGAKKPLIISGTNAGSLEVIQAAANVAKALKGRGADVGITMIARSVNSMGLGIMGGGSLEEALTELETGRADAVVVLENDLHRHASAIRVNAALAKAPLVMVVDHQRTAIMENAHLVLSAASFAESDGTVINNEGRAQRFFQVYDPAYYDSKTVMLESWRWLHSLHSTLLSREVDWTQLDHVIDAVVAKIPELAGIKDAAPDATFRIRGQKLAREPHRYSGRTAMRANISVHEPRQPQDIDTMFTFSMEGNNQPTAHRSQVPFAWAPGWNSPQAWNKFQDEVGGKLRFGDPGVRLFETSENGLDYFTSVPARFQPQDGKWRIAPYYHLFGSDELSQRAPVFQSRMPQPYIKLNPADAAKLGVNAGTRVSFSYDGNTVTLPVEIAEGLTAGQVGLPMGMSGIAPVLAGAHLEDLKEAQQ

[2] = target: T2, E. coli respiratory complex I (NADH:ubiquinone oxidoreductase) (Escherichia coli, UniProt P31979); experiment: as above; format: biochemical; conditions: reaction started by enzyme (oxidised enzyme); ferricyanide 0.25-2 mM; pH 6.0, 30 °C; ping-pong-pong with double substrate inhibition; read-out: Km, app. ^NADH
T2 construct: gene nuoF; whole complex from the nuo operon, His-tagged NuoF, overproduced in E. coli, DDM-solubilised, purified by anion exchange, Ni-IDA and Source Q; with NADH-quinone oxidoreductase subunit E; NADH-quinone oxidoreductase subunit G; NADH-quinone oxidoreductase subunit C/D; NADH-quinone oxidoreductase subunit B; NADH-quinone oxidoreductase subunit I; NADH-quinone oxidoreductase subunit A; NADH-quinone oxidoreductase subunit H; NADH-quinone oxidoreductase subunit J; NADH-quinone oxidoreductase subunit K; NADH-quinone oxidoreductase subunit L; NADH-quinone oxidoreductase subunit M; NADH-quinone oxidoreductase subunit N
T2 sequence (P0AFD1 whole entry V96P/N142M, form open, one chain of several): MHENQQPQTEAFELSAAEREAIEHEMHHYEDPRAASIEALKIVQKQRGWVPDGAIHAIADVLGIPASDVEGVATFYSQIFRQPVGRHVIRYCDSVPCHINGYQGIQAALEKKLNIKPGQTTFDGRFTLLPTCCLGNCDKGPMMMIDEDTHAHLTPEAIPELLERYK

[3] = target: T2, E. coli respiratory complex I (NADH:ubiquinone oxidoreductase); experiment: as above; format: biochemical; conditions: reaction started by enzyme (oxidised enzyme), ferricyanide 0.25-2 mM, pH 6.0, 30 °C, ping-pong-pong with double substrate inhibition, competitive with ferricyanide at the reduced; remark: listed apart in the source
[4] = target: T2, E. coli respiratory complex I (NADH:ubiquinone oxidoreductase); experiment: as above; format: biochemical; conditions: reaction started by enzyme (oxidised enzyme); pH 6.0, 30 °C; off-rate derived from steady-state kinetics, not a Kd
[5] = target: T1, E. coli respiratory complex I (NADH:ubiquinone oxidoreductase); experiment: as above; format: biochemical; conditions: reaction started by enzyme (oxidised enzyme); pH 6.0, 30 °C; off-rate derived from steady-state kinetics, not a Kd; remark: listed apart in the source
[6] = target: T3, T. thermophilus complex I (Thermus thermophilus, UniProt Q56222); experiment: d-NADH:ferricyanide oxidoreductase activity of cytoplasmic membranes, […] nm; format: biochemical; conditions: ferricyanide as acceptor; 50 mM Bis-Tris, pH 7.3 (Figure 1 legend), 60 °C
T3 construct: gene nqo1; native complex in isolated T. thermophilus cytoplasmic membranes; with NADH-quinone oxidoreductase subunit 2; NADH-quinone oxidoreductase subunit 3; NADH-quinone oxidoreductase subunit 4; NADH-quinone oxidoreductase subunit 5; NADH-quinone oxidoreductase subunit 6; NADH-quinone oxidoreductase subunit 7; NADH-quinone oxidoreductase subunit 8; NADH-quinone oxidoreductase subunit 9; NADH-quinone oxidoreductase subunit 10; NADH-quinone oxidoreductase subunit 11; NADH-quinone oxidoreductase subunit 12; NADH-quinone oxidoreductase subunit 13; NADH-quinone oxidoreductase subunit 14; NADH-quinone oxidoreductase subunit 15; NADH-quinone oxidoreductase subunit 16
T3 sequence (Q56222 1-438): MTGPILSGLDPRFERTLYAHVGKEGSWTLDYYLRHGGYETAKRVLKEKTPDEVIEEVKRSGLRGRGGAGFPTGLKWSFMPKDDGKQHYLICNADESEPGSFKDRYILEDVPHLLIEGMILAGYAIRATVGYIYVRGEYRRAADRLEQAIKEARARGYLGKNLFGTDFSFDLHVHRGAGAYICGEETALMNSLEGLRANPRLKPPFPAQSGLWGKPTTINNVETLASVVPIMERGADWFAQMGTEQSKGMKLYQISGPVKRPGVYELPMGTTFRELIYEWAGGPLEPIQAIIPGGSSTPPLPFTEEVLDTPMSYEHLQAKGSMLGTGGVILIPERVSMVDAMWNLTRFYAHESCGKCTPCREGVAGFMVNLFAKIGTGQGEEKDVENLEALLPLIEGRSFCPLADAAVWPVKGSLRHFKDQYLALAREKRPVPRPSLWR
T3 sequence (Q56221 2-181 partner): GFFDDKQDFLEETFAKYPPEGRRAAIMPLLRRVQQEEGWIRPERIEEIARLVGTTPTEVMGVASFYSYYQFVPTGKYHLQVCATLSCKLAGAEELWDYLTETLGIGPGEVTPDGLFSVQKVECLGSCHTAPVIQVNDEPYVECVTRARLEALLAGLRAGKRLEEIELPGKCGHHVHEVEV
T3 sequence (Q56223 1-783 partner): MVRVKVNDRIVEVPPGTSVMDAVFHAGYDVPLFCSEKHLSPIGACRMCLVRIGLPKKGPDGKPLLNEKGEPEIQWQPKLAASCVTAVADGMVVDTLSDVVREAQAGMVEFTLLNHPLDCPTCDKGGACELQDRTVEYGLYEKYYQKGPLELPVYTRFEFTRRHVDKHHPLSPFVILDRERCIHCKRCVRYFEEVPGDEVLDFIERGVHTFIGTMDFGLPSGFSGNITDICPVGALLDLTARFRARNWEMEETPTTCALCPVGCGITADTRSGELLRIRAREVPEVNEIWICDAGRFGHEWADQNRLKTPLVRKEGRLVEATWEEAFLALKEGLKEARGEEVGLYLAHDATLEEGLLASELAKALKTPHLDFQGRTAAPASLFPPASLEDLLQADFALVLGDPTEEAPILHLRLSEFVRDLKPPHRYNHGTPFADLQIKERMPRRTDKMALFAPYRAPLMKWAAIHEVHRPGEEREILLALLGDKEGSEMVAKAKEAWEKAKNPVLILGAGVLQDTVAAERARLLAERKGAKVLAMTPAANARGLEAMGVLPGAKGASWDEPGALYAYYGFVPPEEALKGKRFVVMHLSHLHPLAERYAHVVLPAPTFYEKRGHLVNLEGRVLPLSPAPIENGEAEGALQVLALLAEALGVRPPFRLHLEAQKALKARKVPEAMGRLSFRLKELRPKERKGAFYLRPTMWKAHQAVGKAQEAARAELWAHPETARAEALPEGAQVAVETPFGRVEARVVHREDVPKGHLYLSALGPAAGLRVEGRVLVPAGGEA

purified protein = substrate: NC(=O)C1=CN([C@@H]2O[C@H](COP(=O)(O)OP(=O)(O)OC[C@H]3O[C@@H](n4cnc5c(N)ncnc54)[C@H](O)[C@@H]3O)[C@@H](O)[C@H]2O)C=CC1; experiment: purified protein; format: biochemical, Escherichia coli; conditions: reaction started by enzyme (oxidised enzyme), ferricyanide 0.25-2 mM, pH 6.0, 30 °C, ping-pong-pong with double substrate inhibition

NC(=O)C1=CN([C@@H]2O[C@H](COP(=O)(O)OP(=O)(O)OC[C@H]3O[C@@H](n4cnc5c(N)ncnc54)[C@H](O)[C@@H]3O)[C@@H](O)[C@H]2O)C=CC1 [NADH]
Ki, app. ^NADH [1]: 22 µM
Km [2]: 11 µM
Ki, app. ^NADH [3]: 22 µM

NC(=O)c1ccc[n+]([C@@H]2O[C@H](COP(=O)(O)OP(=O)(O)OC[C@H]3O[C@@H](n4cnc5c(N)ncnc54)[C@H](O)[C@@H]3O)[C@@H](O)[C@H]2O)c1 [NAD^+]
Rate constant: NAD^+ dissociation (s^-1) [4]: 2.4 10^3
Rate constant: NAD^+ dissociation (s^-1) [5]: 2.3 10^3

NC(=O)C1=CN([C@@H]2O[C@H](COP(=O)(O)OP(=O)(O)OC[C@H]3O[C@@H](n4cnc5c(=O)[nH]cnc54)[C@H](O)[C@@H]3O)[C@@H](O)[C@H]2O)C=CC1 [d-NADH]
d-NADH:ferricyanide oxidoreductase activity of cytoplasmic membranes, 340 nm [6]: T. thermophilus membranes exhibited similar fast reaction rates

B1: E. coli respiratory complex I (NADH:ubiquinone oxidoreductase) (Escherichia coli K-12) (protein)
chain: MKNIIRTPETHPLTWRLRDDKQPVWLDEYRSKNGYEGARKALTGLSPDEIVNQVKDAGLKGRGGAGFSTGLKWSLMPKDESMNIRYLLCNADEMEPGTYKDRLLMEQLPHLLVEGMLISAFALKAYRGYIFLRGEYIEAAVNLRRAIAEATEAGLLGKNIMGTGFDFELFVHTGAGRYICGEETALINSLEGRRANPRSKPPFPATSGAWGKPTCVNNVETLCNVPAILANGVEWYQNISKSKDAGTKLMGFSGRVKNPGLWELPFGTTAREILEDYAGGMRDGLKFKAWQPGGAGTDFLTEAHLDLPMEFESIGKAGSRLGTALAMAVDHEINMVSLVRNLEEFFARESCGWCTPCRDGLPWSVKILRALERGEGQPGDIETLEQLCRFLGPGKTFCAHAPGAVEPLQSAIKYFREEFEAGIKQPFSNTHLINGIQPNLLKERW
notes: whole complex from the nuo operon, His-tagged NuoF, overproduced in E. coli, DDM-solubilised, purified by anion exchange, Ni-IDA and Source Q; with NADH-quinone oxidoreductase subunit E; NADH-quinone oxidoreductase subunit G; NADH-quinone oxidoreductase subunit C/D; NADH-quinone oxidoreductase subunit B; NADH-quinone oxidoreductase subunit I; NADH-quinone oxidoreductase subunit A; NADH-quinone …
Km (purified protein): 11 µM
